System: NVCM
Test: Live-cell microscopy and mitochondrial membrane staining of NVCM
Format: cell-based, rat
Conditions: 10 µM + DAU 1.2 µM
Experimental: Micrographs were obtained using an Eclipse TS100 inverted epifluorescence microscope (Nikon Corporation, Tokyo, Japan) and NIS-Elements AR 2.20 software (Laboratory Imaging s.r.o., Prague, Czech Republic). After treatment and incubation time corresponding to cytotoxicity/protection experiments (3 h preincubation with topobexin (9) [10 µM], 3 h co-incubation with topobexin (9) [10 µM] + DAU [1.2 µM], 45 h drug-free medium) NVCM were stained with 0.5 μM JC-1 probe (Molecular Probes/Thermo Fisher Scientific, USA) for 30 min at 37 °C or combination of 0.2 μM MitoTracker Red CMXRos (Molecular Probes/Thermo Fisher Scientific, USA) for 30 min and Hoechst 33342 for 10 min at 37 °C and then washed with a buffer (1.2 mM MgSO4 · 7H2O, 116 mM NaCl, 5.3 mM KCl, 1.13 mM NaH2PO4 · H2O, 20 mM HEPES).

Q: Which “DAU-induced changes in cardiomyocyte morphology and mitochondria” value does the source give for `CCCc1cc(=O)oc2c(C(=O)N3CCCc4ccccc43)c(OCCN3CCN(C)CC3)ccc12` [topobexin (9)] here?
A: reduced the distinct changes in cardiomyocyte morphology induced by DAU
